Legend:
[1] = Cytotoxicity against human HepG2 cells assessed as cell viability at 1 uM after 4 hrs by Cell-Titer Glo assay; format: cell-based; conditions: read-out: Activity
[2] = Cytotoxicity against human HepG2 cells assessed as cell viability at 10 uM after 4 hrs by Cell-Titer Glo assay; format: cell-based; conditions: read-out: Activity
[3] = Cytotoxicity against human HepG2 cells assessed as cell viability at 1 uM after 24 hrs by Cell-Titer Glo assay; format: cell-based; conditions: read-out: Activity
[4] = Cytotoxicity against human HepG2 cells assessed as cell viability at 10 uM after 24 hrs by Cell-Titer Glo assay; format: cell-based; conditions: read-out: Activity
[5] = tested on: T1, Activin receptor type-1 (Homo sapiens), Q04771 [Q207D]
T1 sequence (whole entry): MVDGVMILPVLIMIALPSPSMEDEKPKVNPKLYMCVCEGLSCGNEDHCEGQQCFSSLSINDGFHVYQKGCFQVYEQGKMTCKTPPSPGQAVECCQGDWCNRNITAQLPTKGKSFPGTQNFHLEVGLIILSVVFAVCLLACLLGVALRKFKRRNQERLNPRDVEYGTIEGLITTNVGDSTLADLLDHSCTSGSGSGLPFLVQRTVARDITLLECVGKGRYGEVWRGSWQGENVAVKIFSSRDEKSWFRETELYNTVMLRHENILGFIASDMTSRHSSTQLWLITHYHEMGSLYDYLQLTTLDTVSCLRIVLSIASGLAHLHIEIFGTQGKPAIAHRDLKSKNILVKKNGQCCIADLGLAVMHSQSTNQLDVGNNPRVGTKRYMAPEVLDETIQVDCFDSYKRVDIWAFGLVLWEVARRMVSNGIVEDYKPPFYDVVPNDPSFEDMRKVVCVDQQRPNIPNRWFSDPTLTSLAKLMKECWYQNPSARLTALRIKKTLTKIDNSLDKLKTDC

[6] = biological target: T2, TGF-beta receptor type-1 (Homo sapiens) (UniProt P36897)
T2 sequence (whole entry): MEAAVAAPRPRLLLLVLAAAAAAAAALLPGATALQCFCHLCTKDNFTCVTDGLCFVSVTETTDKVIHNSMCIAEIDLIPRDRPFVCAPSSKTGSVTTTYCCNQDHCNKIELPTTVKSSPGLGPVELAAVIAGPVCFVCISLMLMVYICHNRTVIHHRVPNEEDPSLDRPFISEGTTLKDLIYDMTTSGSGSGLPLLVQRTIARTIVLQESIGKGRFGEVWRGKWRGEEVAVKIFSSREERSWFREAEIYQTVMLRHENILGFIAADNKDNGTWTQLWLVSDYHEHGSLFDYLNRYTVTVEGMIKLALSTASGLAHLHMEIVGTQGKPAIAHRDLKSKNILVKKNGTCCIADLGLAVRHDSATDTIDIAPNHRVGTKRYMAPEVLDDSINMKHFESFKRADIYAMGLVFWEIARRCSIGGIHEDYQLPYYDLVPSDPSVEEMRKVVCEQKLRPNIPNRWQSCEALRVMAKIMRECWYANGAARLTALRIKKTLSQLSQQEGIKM
Description: Inhibition of purified ALK5 kinase (unknown origin) by RT-PCR analysis

[7] = Cytotoxicity against human HepG2 cells assessed as cell viability at 100 uM after 4 hrs by Cell-Titer Glo assay; format: cell-based; conditions: read-out: Activity
[8] = Cytotoxicity against human HepG2 cells assessed as cell viability at 100 uM after 24 hrs by Cell-Titer Glo assay; format: cell-based; conditions: read-out: Activity

Row | Compound | viability at 4 h, 1 µM [1] | viability at 4 h, 10 µM [2] | viability at 24 h, 1 µM [3] | viability at 24 h, 10 µM [4] | ΔTm [5] | ΔTm [6] | viability at 4 h, 100 µM [7] | viability at 24 h, 100 µM [8]
1 | COc1cc(-c2cncc(-c3ccc(N4CCNCC4)cc3)c2)cc(OC)c1OC | > 75% | > 75% | > 75% | > 75% | 14.1 °C | 10.4 °C |  | 
2 | COc1cc(-c2cc(-c3ccc(N4CCNCC4)cc3)cnc2C)cc(OC)c1OC | > 75% | > 75% | > 75% | > 75% | 13.7 °C | 9.7 °C | > 75% | > 75%
3 | COc1cc(-c2cc(-c3ccc(N4CCNCC4)cc3)cnc2N)cc(OC)c1OC | > 75% | > 75% | > 75% | > 75% | 15.1 °C | 13.9 °C | > 75% | 

— ChEMBL document CHEMBL3352089 (J Med Chem, 2014)
